Experimental data taken from paper PMC6284057, “Combined Antibacterial Effects of Goat Cathelicidins With Different Mechanisms of Action” (Frontiers in Microbiology, 2018).
Values after ≈ are worked out from the molar mass of the structure shown. Read-outs that look alike come from different tables or passages of the source. Positions of bridges follow the written chain, without caps; N, C: chain ends. Non-standard residues stand in square brackets, D forms with d. Residues, ends and D or L forms follow the SMILES beside them. No end group written: not given here. *: point of attachment. X1 = CC[C@H](C)CCCCC(=O)*; Dab = NCC[C@H](N)C(=O)O

Key:
[1] = system: A. baumannii (XDR CI 2675); test: microbe, parasite or virus in culture; assay type: cell-based, Acinetobacter baumannii; conditions: read-out: Minimum inhibitory concentration
Description: (§1) Antimicrobial assay was performed as described previously ([Panteleev et al., 2017b]). Briefly, mid-log phase bacterial test cultures were diluted with the 2× Mueller-Hinton broth (MH, Sigma) supplemented with 1.8% NaCl or without it so that to reach a final cell concentration of 10^6 CFU/ml. 50 μl aliquots of the obtained bacterial suspension were added to 50 μl of the peptide solutions serially diluted with 0.1% water solution of bovine serum albumin (BSA) in 96-well flat-bottom polystyrene microplates (Eppendorf #0030730011). After incubation at 37°C and 900 rpm for 24 h the minimum inhibitory concentrations (MIC) were determined as the lowest peptide concentrations that prevented growth of a test microorganism observed as visible turbidity. The results were expressed as the median values determined on the basis of at least three independent experiments performed in triplicate.

[2] = system: E. cloacae (XDR CI 4172); test: microbe, parasite or virus in culture; assay type: cell-based, Enterobacter cloacae; conditions: read-out: Minimum inhibitory concentration
Description: as §1

[3] = system: E. coli (XDR CI 1057); test: microbe, parasite or virus in culture; assay type: cell-based, Escherichia coli
Description: as §1

[4] = system: K. pneumoniae (XDR CI 1056); test: microbe, parasite or virus in culture; assay type: cell-based, Klebsiella pneumoniae; conditions: Table S2, XDR clinical isolate; NaCl content of medium not stated; read-out: Minimum inhibitory concentration
Description: as §1

[5] = system: P. aeruginosa (XDR CI 1049); test: microbe, parasite or virus in culture; assay type: cell-based, Pseudomonas aeruginosa; conditions: Table S2, XDR clinical isolate; NaCl content of medium not stated; read-out: Minimum inhibitory concentration
Description: as §1

[6] = system: P. mirabilis (XDR CI 3423); test: microbe, parasite or virus in culture; assay type: cell-based, Proteus mirabilis; conditions: Table S2, XDR clinical isolate; NaCl content of medium not stated; read-out: Minimum inhibitory concentration
Description: as §1

[7] = system: E. coli XDR CI 1057 (26 days with mini-ChBac7.5Nα)
Description: as §1, with “After incubation at 37°C and 900 rpm for 24 h the minimum inhibitory concentrations (MIC) were determined as the lowest peptide concentrations that prevented growth of a test microorganism observed as visible turbidity.” left out
(§2) Resistance induction experiments were performed using the previously described method ([Chernysh et al., 2015]) with some modifications. Briefly, on day 1, the overnight culture of wild-type bacteria was diluted with the 2× MH broth containing 1.8% NaCl so that to reach a final cell concentration of 10^6 CFU/ml. 50 μl aliquots of the obtained bacterial suspension were added to 50 μl of the peptide solutions serially diluted with 0.1% water solution of BSA in 96-well microplates (Eppendorf #0030730011). After incubation at 37°C and 900 rpm for 22 ± 2 h, MICs were determined as described above. For each subsequent daily transfer, 5 μl of the inoculum taken from the first well with a sub-inhibitory drug concentration were diluted with 1 ml of the fresh 2× MH broth supplemented with 1.8% NaCl. […] 26 repeated passages in the presence of antimicrobial agents were made for each bacterial strain during the experiment. […] Control serial passages in the absence of the agent were also performed.

[8] = system: E. coli XDR CI 1057 (26 days with synergy combination); conditions: Table 4, strain after 26 days with synergy combination (selection in MH broth with 0.9% NaCl)
Description: as §1, with “After incubation at 37°C and 900 rpm for 24 h the minimum inhibitory concentrations (MIC) were determined as the lowest peptide concentrations that prevented growth of a test microorganism observed as visible turbidity.” left out
as §2

[9] = system: E. coli XDR CI 1057 (26 days without antimicrobial agent)
Description: as §1, with “After incubation at 37°C and 900 rpm for 24 h the minimum inhibitory concentrations (MIC) were determined as the lowest peptide concentrations that prevented growth of a test microorganism observed as visible turbidity.” left out
as §2

[10] = system: E. coli XDR CI 1057; conditions: MH broth, 0.9% NaCl
Description: Resistance induction experiments were performed using the previously described method ([Chernysh et al., 2015]) with some modifications. Briefly, on day 1, the overnight culture of wild-type bacteria was diluted with the 2× MH broth containing 1.8% NaCl so that to reach a final cell concentration of 10^6 CFU/ml. 50 μl aliquots of the obtained bacterial suspension were added to 50 μl of the peptide solutions serially diluted with 0.1% water solution of BSA in 96-well microplates (Eppendorf #0030730011). After incubation at 37°C and 900 rpm for 22 ± 2 h, MICs were determined as described above. For each subsequent daily transfer, 5 μl of the inoculum taken from the first well with a sub-inhibitory drug concentration were diluted with 1 ml of the fresh 2× MH broth supplemented with 1.8% NaCl. […] Control serial passages in the absence of the agent were also performed.

[11] = system: E. coli ML-35p; test: Resistance induction experiment; assay type: cell-based, Escherichia coli; conditions: after 25 passages under selection; MH broth, 0.9% NaCl
Description: as §2

[12] = system: E. coli V102G mutant strain (SbmA); parameters: method as in Corbalan et al., 2013; conditions: ref Corbalan et al., 2013; cited from earlier work
[13] = system: M. luteus B-1314; assay type: cell-based, Micrococcus luteus; conditions: Mueller-Hinton broth, 10^6 CFU/ml, peptide diluted in 0.1% BSA, 37°C, 24 h, median of at least 3 experiments in triplicate
Description: as §1

[14] = system: B. subtilis B-886; assay type: cell-based, Bacillus subtilis; conditions: Mueller-Hinton broth, 10^6 CFU/ml, 0.1% BSA, 37°C, 24 h, median of at least 3 experiments
Description: as §1

[15] = system: E. faecalis ATCC 29212; assay type: cell-based, Enterococcus faecalis; conditions: Mueller-Hinton broth, 10^6 CFU/ml, 0.1% BSA, 37°C, 24 h, median of at least 3 experiments
Description: (§3) Briefly, mid-log phase bacterial test cultures were diluted with the 2× Mueller-Hinton broth (MH, Sigma) supplemented with 1.8% NaCl or without it so that to reach a final cell concentration of 10^6 CFU/ml. 50 μl aliquots of the obtained bacterial suspension were added to 50 μl of the peptide solutions serially diluted with 0.1% water solution of bovine serum albumin (BSA) in 96-well flat-bottom polystyrene microplates (Eppendorf #0030730011). […] The results were expressed as the median values determined on the basis of at least three independent experiments performed in triplicate.

[16] = system: S. aureus ATCC 29213; assay type: cell-based, Staphylococcus aureus; conditions: Mueller-Hinton broth, 10^6 CFU/ml, 0.1% BSA, 37°C, 24 h, median of at least 3 experiments
Description: as §3

[17] = system: S. aureus 209P; assay type: cell-based, Staphylococcus aureus; conditions: Mueller-Hinton broth, 10^6 CFU/ml, 0.1% BSA, 37°C, 24 h, median of at least 3 experiments
Description: as §1

[18] = system: P. aeruginosa PAO1; assay type: cell-based, Pseudomonas aeruginosa; conditions: Mueller-Hinton broth, 10^6 CFU/ml, 0.1% BSA, 37°C, 24 h, median of at least 3 experiments
Description: as §1

[19] = system: K. pneumoniae (CI 287); assay type: cell-based, Klebsiella pneumoniae; conditions: Mueller-Hinton broth, 10^6 CFU/ml, 0.1% BSA, 37°C, 24 h, median of at least 3 experiments
Description: as §1

[20] = system: E. coli C600; assay type: cell-based, Escherichia coli; conditions: Mueller-Hinton broth, 10^6 CFU/ml, 0.1% BSA, 37°C, 24 h, median of at least 3 experiments
Description: as §1

[21] = system: E. coli ML-35p; assay type: cell-based, Escherichia coli; conditions: Mueller-Hinton broth, 10^6 CFU/ml, 0.1% BSA, 37°C, 24 h, median of at least 3 experiments
Description: as §1

[22] = system: mini-ChBac7.5Nα-resistant E. coli strain; conditions: peptide alone, before addition of ChMAP-28
Description: as §1, with “After incubation at 37°C and 900 rpm for 24 h the minimum inhibitory concentrations (MIC) were determined as the lowest peptide concentrations that prevented growth of a test microorganism observed as visible turbidity.” left out
as §2

[23] = system: mammalian cell lines (HEK293T, HEF); test: Cytotoxicity (MTT assay); assay type: cell-based, human; conditions: HEK293T and HEF, 24 h incubation
Description: Hemolytic activity of the peptides was tested against the fresh suspension of human red blood cells (hRBC) using the hemoglobin release assay as described previously ([Panteleev et al., 2016]). Three experiments were performed with the hRBC from blood samples obtained from independent donors. The obtained data were represented as average means with standard deviations. The cytotoxicity of the peptides against HEK293T (transformed human embryonic kidney cells) and HEF (human embryonic fibroblasts) cell lines was studied using the colorimetric 3-(4,5-dimethylthiazol-2-yl)-2,5-diphenyltetrazolium bromide (MTT) dye reduction assay according to ([Panteleev and Ovchinnikova, 2017]). Three independent experiments were performed for each peptide. Half maximal inhibitory concentration (IC50) values were estimated as described previously ([Kuzmin et al., 2018]).

[24] = Table S2, XDR clinical isolate, NaCl content of medium not stated
[25] = 0.9% NaCl, Mueller-Hinton broth, 10^6 CFU/ml, 0.1% BSA, 37°C, 24 h, median of at least 3 experiments
[26] = Without NaCl, Mueller-Hinton broth, 10^6 CFU/ml, 0.1% BSA, 37°C, 24 h, median of at least 3 experiments

CC[C@H](C)CCCCC(=O)N[C@@H](CCN)C(=O)N[C@H](C(=O)N[C@@H](CCN)C(=O)N[C@H]1CCNC(=O)[C@H]([C@@H](C)O)NC(=O)[C@H](CCN)NC(=O)[C@H](CCN)NC(=O)[C@H](CC(C)C)NC(=O)[C@@H](Cc2ccccc2)NC(=O)[C@H](CCN)NC1=O)[C@@H](C)O [Polymyxin B, reference compound] (X1-[Dab]T[Dab][Dab][Dab][dF]L[Dab][Dab]T; lactam 4-C (inferred); N-terminus assumed)
MIC [1, 24]: 0.125 µM (≈ 0.15 µg/mL)
MIC [2, 24]: 4 µM (≈ 4.81 µg/mL)
Minimum inhibitory concentration ([3]; Table 4, strain at 0 days of selection experiment (selection in MH broth with 0.9% NaCl)): 0.125 µM (≈ 0.15 µg/mL)
Minimum inhibitory concentration [3, 24]: 0.125 µM (≈ 0.15 µg/mL)
MIC [4]: 0.25 µM (≈ 0.301 µg/mL)
MIC [5]: 2 µM (≈ 2.41 µg/mL)
MIC [6]: >128 µM
Minimum inhibitory concentration ([7]; Table 4, strain after 26 days with mini-ChBac7.5Nα (selection in MH broth with 0.9% NaCl)): 0.125 µM (≈ 0.15 µg/mL)
Minimum inhibitory concentration [8]: 0.06 µM
Minimum inhibitory concentration ([9]; Table 4, strain after 26 days without antimicrobial agent (selection in MH broth with 0.9% NaCl)): 0.125 µM (≈ 0.15 µg/mL)
increase in MIC value ([10]; after 25 passages under selection): 2048 fold
MIC value after resistance development ([10]; selection by polymyxin B): > 256 µM
increase in MIC value [11]: 128 fold

Bac7(1–16): minimal active fragment of the bovine 60-residue Pro-rich peptide Bac7 (RRIRPRPPRLPRPRPR; Bactenecin 7; UniProt P19661 131-146, looked up, fragment)
MIC [12]: 156 µM

RRLRPRRPRLPRPRPR [mini-ChBac7.5Nα(1–16)]
Minimum inhibitory concentration ([13]; 0.9% NaCl): 8 µM
Minimum inhibitory concentration ([13]; Without NaCl): 1 µM
Minimum inhibitory concentration ([14]; 0.9% NaCl): >32 µM
Minimum inhibitory concentration ([14]; Without NaCl): 1 µM
Minimum inhibitory concentration ([15]; 0.9% NaCl): >32 µM
Minimum inhibitory concentration ([15]; Without NaCl): >32 µM
Minimum inhibitory concentration ([16]; 0.9% NaCl): >32 µM
Minimum inhibitory concentration ([16]; Without NaCl): >32 µM
Minimum inhibitory concentration ([17]; 0.9% NaCl): >32 µM
Minimum inhibitory concentration ([17]; Without NaCl): 8 µM
Minimum inhibitory concentration ([18]; 0.9% NaCl): >32 µM
Minimum inhibitory concentration ([18]; Without NaCl): 16 µM
MIC [1, 25]: >32 µM
MIC [1, 26]: 4 µM
Minimum inhibitory concentration ([19]; 0.9% NaCl): >32 µM
Minimum inhibitory concentration ([19]; Without NaCl): 4 µM
MIC [2, 25]: >32 µM
MIC [2, 26]: 1 µM
Minimum inhibitory concentration ([20]; 0.9% NaCl): 16 µM
Minimum inhibitory concentration ([20]; Without NaCl): 2 µM
Minimum inhibitory concentration ([21]; 0.9% NaCl): 8 µM
Minimum inhibitory concentration ([21]; Without NaCl): 0.5 µM
Minimum inhibitory concentration ([7]; With 0.9% NaCl, resistant strain, 26 days with mini-ChBac7.5Nα): >256 µM
Minimum inhibitory concentration ([7]; Without salt, resistant strain, 26 days with mini-ChBac7.5Nα): 16 µM
Minimum inhibitory concentration ([9]; With 0.9% NaCl, control strain, 26 days without antimicrobial agent): 16 µM
Minimum inhibitory concentration ([9]; Without salt, control strain, 26 days without antimicrobial agent): 2 µM
MIC of the individual peptide [22]: > 256 µM
concentrations at which cytotoxic activity was shown [23]: > 25 µM
